Experimental data: ChEMBL document CHEMBL3885881, “DrugMatrix”

Organism: Rattus norvegicus
Test: DrugMatrix - Regimen: Daily Repeat
Type: toxicity, organism-based, Sprague-Dawley
Set-up: regimen Daily Repeat, gender Male, age 6-8 weeks
Details: in vivo, po, route oral GAVAGE, vehicle .5 % CMC; for ABSOLUTE BASOPHIL / ABSOLUTE EOSINOPHIL / ABSOLUTE LYMPHOCYTE / ABSOLUTE MONOCYTE / ABSOLUTE SEGMENTED NEUTROPHIL / BASOPHIL / EOSINOPHIL / ERYTHROCYTE COUNT / HEMATOCRIT / HEMOGLOBIN / LEUKOCYTE COUNT / LYMPHOCYTE / MEAN CORPUSCULAR HEMOGLOBIN / MEAN CORPUSCULAR HEMOGLOBIN CONCENTRATION / MEAN CORPUSCULAR VOLUME / MONOCYTE / NEUTROPHIL / NUCLEATED RED BLOOD CELLS / PLATELET COUNT: tissue Blood; for ALANINE AMINOTRANSFERASE / ALBUMIN / ALKALINE PHOSPHATASE / ASPARTATE AMINOTRANSFERASE / BLOOD UREA NITROGEN / CARBON DIOXIDE / CHLORIDE / CHOLESTEROL / CREATINE PHOSPHOKINASE / CREATININE / GLUCOSE / LACTATE DEHYDROGENASE / LIPASE / PHOSPHORUS / POTASSIUM / SODIUM / TOTAL BILIRUBIN / TOTAL PROTEIN / URIC ACID: tissue Plasma
[1] = 0 mg/kg, 72 h, dose level Control, time 3 day
[2] = 0 mg/kg, 120 h, dose level Control, time 5 day
[3] = 100 mg/kg, 72 h, dose level Low, time 3 day

CN/C(=N/CCSCc1nc[nH]c1C)NC#N [CIMETIDINE]
ABSOLUTE BASOPHIL [1]: 0 CELLS/uL
ABSOLUTE EOSINOPHIL [1]: 0 CELLS/uL
ABSOLUTE LYMPHOCYTE [1]: 12191.17 CELLS/uL
ABSOLUTE MONOCYTE [1]: 183.17 CELLS/uL
ABSOLUTE SEGMENTED NEUTROPHIL [1]: 1192.33 CELLS/uL
BASOPHIL [1]: 0%
EOSINOPHIL [1]: 0%
ERYTHROCYTE COUNT [1]: 5.51 x10E6/uL
HEMATOCRIT [1]: 35.45%
HEMOGLOBIN [1]: 13.82 G/DL
LEUKOCYTE COUNT [1]: 13.57 x10E3/uL
LYMPHOCYTE [1]: 89.83%
MEAN CORPUSCULAR HEMOGLOBIN [1]: 25.1 pg
MEAN CORPUSCULAR HEMOGLOBIN CONCENTRATION [1]: 38.98 G/DL
MEAN CORPUSCULAR VOLUME [1]: 64.42 fL
MONOCYTE [1]: 1.33%
NEUTROPHIL [1]: 8.83%
NUCLEATED RED BLOOD CELLS [1]: 0 /100WBC
PLATELET COUNT [1]: 1118.17 x10E3/uL
ALANINE AMINOTRANSFERASE [1]: 55 u/L
ALBUMIN [1]: 4.15 G/DL
ALKALINE PHOSPHATASE [1]: 449.5 u/L
ASPARTATE AMINOTRANSFERASE [1]: 112.83 u/L
BLOOD UREA NITROGEN [1]: 17.33 mg/dL
CARBON DIOXIDE [1]: 29.5 mmol/L
CHLORIDE [1]: 101 MEQ/L
CHOLESTEROL [1]: 70 mg/dL
CREATINE PHOSPHOKINASE [1]: 1325.83 u/L
CREATININE [1]: 0.18 mg/dL
GLUCOSE [1]: 171.5 mg/dL
LACTATE DEHYDROGENASE [1]: 386 u/L
LIPASE [1]: 10 u/L
PHOSPHORUS [1]: 11.57 mg/dL
POTASSIUM [1]: 6.21 MEQ/L
SODIUM [1]: 141.65 MEQ/L
TOTAL BILIRUBIN [1]: 0.15 mg/dL
TOTAL PROTEIN [1]: 5.75 G/DL
URIC ACID [1]: 1.28 mg/dL
ABSOLUTE BASOPHIL [2]: 0 CELLS/uL
ABSOLUTE EOSINOPHIL [2]: 138.17 CELLS/uL
ABSOLUTE LYMPHOCYTE [2]: 13283.17 CELLS/uL
ABSOLUTE MONOCYTE [2]: 303.83 CELLS/uL
ABSOLUTE SEGMENTED NEUTROPHIL [2]: 1308.17 CELLS/uL
BASOPHIL [2]: 0%
EOSINOPHIL [2]: 1%
ERYTHROCYTE COUNT [2]: 5.32 x10E6/uL
HEMATOCRIT [2]: 33.8%
HEMOGLOBIN [2]: 13.63 G/DL
LEUKOCYTE COUNT [2]: 15.03 x10E3/uL
LYMPHOCYTE [2]: 88.33%
MEAN CORPUSCULAR HEMOGLOBIN [2]: 25.68 pg
MEAN CORPUSCULAR HEMOGLOBIN CONCENTRATION [2]: 40.35 G/DL
MEAN CORPUSCULAR VOLUME [2]: 63.67 fL
MONOCYTE [2]: 1.83%
NEUTROPHIL [2]: 8.83%
NUCLEATED RED BLOOD CELLS [2]: 0 /100WBC
PLATELET COUNT [2]: 1097.5 x10E3/uL
ALANINE AMINOTRANSFERASE [2]: 54.5 u/L
ALBUMIN [2]: 4.27 G/DL
ALKALINE PHOSPHATASE [2]: 337 u/L
ASPARTATE AMINOTRANSFERASE [2]: 94.67 u/L
BLOOD UREA NITROGEN [2]: 17 mg/dL
CARBON DIOXIDE [2]: 28.33 mmol/L
CHLORIDE [2]: 101.5 MEQ/L
CHOLESTEROL [2]: 71.33 mg/dL
CREATINE PHOSPHOKINASE [2]: 628.17 u/L
CREATININE [2]: 0.19 mg/dL
GLUCOSE [2]: 177.83 mg/dL
LACTATE DEHYDROGENASE [2]: 500.5 u/L
LIPASE [2]: 9.5 u/L
PHOSPHORUS [2]: 12.3 mg/dL
POTASSIUM [2]: 5.63 MEQ/L
SODIUM [2]: 143.03 MEQ/L
TOTAL BILIRUBIN [2]: 0.2 mg/dL
TOTAL PROTEIN [2]: 6.02 G/DL
URIC ACID [2]: 1.5 mg/dL
ABSOLUTE BASOPHIL [3]: 0 CELLS/uL
ABSOLUTE EOSINOPHIL [3]: 0 CELLS/uL
ABSOLUTE LYMPHOCYTE [3]: 13567.33 CELLS/uL
ABSOLUTE MONOCYTE [3]: 279 CELLS/uL
ABSOLUTE SEGMENTED NEUTROPHIL [3]: 1153.67 CELLS/uL
BASOPHIL [3]: 0%
EOSINOPHIL [3]: 0%
ERYTHROCYTE COUNT [3]: 5.31 x10E6/uL
HEMATOCRIT [3]: 33.83%
HEMOGLOBIN [3]: 13.33 G/DL
LEUKOCYTE COUNT [3]: 15 x10E3/uL
LYMPHOCYTE [3]: 89.67%
MEAN CORPUSCULAR HEMOGLOBIN [3]: 25.1 pg
MEAN CORPUSCULAR HEMOGLOBIN CONCENTRATION [3]: 39.4 G/DL
MEAN CORPUSCULAR VOLUME [3]: 63.63 fL
MONOCYTE [3]: 2%
NEUTROPHIL [3]: 8.33%
NUCLEATED RED BLOOD CELLS [3]: 0 /100WBC
PLATELET COUNT [3]: 1282 x10E3/uL
ALANINE AMINOTRANSFERASE [3]: 53 u/L
ALBUMIN [3]: 4.17 G/DL
ALKALINE PHOSPHATASE [3]: 373 u/L
ASPARTATE AMINOTRANSFERASE [3]: 80.33 u/L
BLOOD UREA NITROGEN [3]: 17.67 mg/dL
CARBON DIOXIDE [3]: 30 mmol/L
CHLORIDE [3]: 100.33 MEQ/L
CHOLESTEROL [3]: 78.33 mg/dL
CREATINE PHOSPHOKINASE [3]: 276 u/L
CREATININE [3]: 0.18 mg/dL
GLUCOSE [3]: 159.67 mg/dL
LACTATE DEHYDROGENASE [3]: 157.33 u/L
LIPASE [3]: 10 u/L
PHOSPHORUS [3]: 10.93 mg/dL
POTASSIUM [3]: 6.04 MEQ/L
SODIUM [3]: 141.53 MEQ/L
TOTAL BILIRUBIN [3]: 0.17 mg/dL
TOTAL PROTEIN [3]: 5.77 G/DL
URIC ACID [3]: 1.33 mg/dL
